PMC11643690, “Chelating Properties of N6O-Donors Toward Cu(II) Ions: Speciation in Aqueous Environments and Catalytic Activity of the Dinuclear Complexes” (Molecules, 2024)
“Also recorded” adds a separate entry of the source.

What was measured:
[1] = UV–Vis titration of ligands with Cu(ClO4)2, binding constant by non-linear regression; conditions: difference of stability constants
Method: To determine the overall equilibrium constant β1,2 (Kbind), a solution of the ligand was titrated with aliquots of 0.2 equivalents of Cu(II). Monitoring the formation of the complex via UV–Vis spectroscopy, the absorbance around 260 nm, 300 nm, 450 nm, and 700 nm increased during the titration (Figure 3a) in all cases. The latter two bands are visible only at high concentrations (>0.1 mM). These changes are caused by the formation of the complex and the disappearance of the free ligand.
In Figure 3b, the linear increase in the absorbance change (ΔAbs) at 240 nm, upon an increase in Cu(II) amount, is evident, leading to a sharp plateau around 2 equivalents. […] The binding constants were determined by non-linear regression analysis of Equation (2), (2) ∆A/b=(K1∆A1Cu+ β1,2∆A2Cu^2)/1+K1Cu+ β1,2Cu^2 which traces the correlation “ΔAbs/b vs. Cu(II) concentration,” according to K. Connors. In this equation, ΔA is the differences in absorbance at a certain wavelength, b is the optical path (1 cm), K1 is the constant for the formation of the complex 1:1, and β1,2 is the global formation constant (Kbind) for the complex 1:2. ΔA1 and ΔA2 are the differences in absorbance due to the formation of the 1:1 complex and the 1:2 complex, respectively. […]
(§1) UV-vis spectra of ligands and complexes were recorded in a quartz cuvette, with 1 cm of optical path. […]

[2] = UV–Vis titration of HL-CH3 with Zn(ClO4)2, binding constant; conditions: Zn(II); 0.1 mM ligand, 5% v/v MeOH/BBS 50 mM, pH 7.4
Method: To evaluate the selectivity of these ligands towards copper, the same titrations were performed with different metal salts: Fe(ClO4)2, Mn(ClO4)2, and Zn(ClO4)2, monitoring the methyl-substituted ligand (Figures S39–S41). These metal ions were chosen because they are also divalent and common in biological matrixes.
For the determination of the binding constant between metals and ligands, a solution of the latter was titrated with 0.2 eq of metal for each addition. The titrating solutions were 10 mM and 100 μM for Cu(ClO4)2 versus 0.1 mM and 1 μM for the ligands in 5% v/v MeOH/BBS (50 mM, pH 7.4), respectively. […] The absorbance variation was monitored from 200 nm to 800 nm at 25 °C. […]
as §1
The titrating solutions were 10 mM and 100 μM for Cu(ClO4)2 versus 0.1 mM and 1 μM for the ligands in 5% v/v MeOH/BBS (50 mM, pH 7.4), respectively. […] The absorbance variation was monitored from 200 nm to 800 nm with a Varian Cary 50 instrument, thermostated at 25 °C.
The binding constants were then determined by nonlinear regression analysis of the plot “ΔAbs/b vs Cu(II) concentration” (Equation 7 ), according to K. Connors, The Measurement of Molecular Complex Stability, Madison, Wisconsin, Wiley, 1987[5]. […]
ΔA: absorbance at a certain wavelength. […]

Cc1cc(CN(Cc2ccccn2)Cc2ccccn2)c(O)c(CN(Cc2ccccn2)Cc2ccccn2)c1 [HL-CH3, 2,6-bis[(bis(2-pyridylmethyl)amino)methyl]-4-methylphenol]
binding preference for copper ions over Mn2+, Fe2+, Zn2+ [1]: almost three orders of magnitude; also recorded: approximately three orders of magnitude higher
Kbind [2]: 2.49 × 10^8 M^−2
log(Kbind) [2]: 8.39
